{"source": "patent US20240115555A1", "about": "“METHODS OF TREATING CANCER USING B-RAF INHIBITORS AND IMMUNE CHECKPOINT INHIBITORS” (Genentech, Inc., priority 2015, published 2024)", "key": {"[1]": {"details": "fumarate salt; cited from earlier work"}, "CD8+ T-cells": {"tested_on": "CD8+ T-cells", "test": "Tissue samples stained for CD8+ T-cells", "type": "in vivo, human", "details": "patient tissue samples, data not shown", "text": "(§1) Tissue samples were stained for CD8+ T-cells as well as PD-L1 expression. Treatment with vemurafenib alone increased immune tumor CD8+ T-cell infiltration (data not shown). Treatment with either vemurafenib alone or vemurafenib in combination with atezolizumab increased expression of PD-L1 on tumor cells as well as tumor-infiltrating immune cells (data not shown)."}, "[2]": {"tested_on": "metastatic melanoma with the BRAFV600E mutation", "details": "cited from earlier work"}, "PD-L1": {"tested_on": "PD-L1", "test": "Tissue samples stained for PD-L1 expression", "type": "in vivo, human", "details": "patient tissue samples, data not shown", "text": "as §1"}, "[3]": {"tested_on": "unresectable or metastatic melanoma", "details": "two Phase III studies; cited from earlier work"}}}
{"compound": "O=C(c1ccc(F)c(F)c1Nc1ccc(I)cc1F)N1CC(O)([C@@H]2CCCCN2)C1", "note": "[Cobimetinib, (S)-(3,4-difluoro-2-(2-fluoro-4-iodophenylamino)phenyl)(3-hydroxy-3-(piperidin-2-yl)azetidin-1-yl)methanone]", "values": [{"measurement": "solubility", "setting": "[1]", "value": "pH dependent solubility"}]}
{"compound": "CCCS(=O)(=O)Nc1ccc(F)c(C(=O)c2c[nH]c3ncc(-c4ccc(Cl)cc4)cc23)c1F", "note": "[vemurafenib, propane-1-sulfonic acid {3-[5-(4-chlorophenyl)-1H-pyrrolo[2,3-b]pyridine-3-carbonyl]-2,4-difluoro-phenyl}-amide]", "values": [{"measurement": "immune tumor CD8+ T-cell infiltration", "setting": "CD8+ T-cells", "value": "increased"}, {"measurement": "improvement in PFS", "setting": "[2]; compared with dacarbazine", "value": 74, "unit": "%"}, {"measurement": "reduction in the risk of death", "setting": "[2]; compared with dacarbazine", "value": 63, "unit": "%"}, {"measurement": "hazard ratio for death", "setting": "[2]; in favor of vemurafenib vs dacarbazine, median follow-up of 12.5 months", "value": "0.70 (95% CI: 0.57, 0.87)"}, {"measurement": "median OS", "setting": "[2]; median follow-up of 12.5 months", "value": 13.6, "unit": "months"}, {"measurement": "Response rates", "setting": "[2]; previously untreated, BRAFV600E mutation", "value": 48, "unit": "%"}, {"measurement": "improvement in median OS", "setting": "[2]; vs dacarbazine, median follow-up of 12.5 months", "value": "~4", "unit": "month"}, {"measurement": "expression of PD-L1 on tumor cells as well as tumor-infiltrating immune cells", "setting": "PD-L1", "value": "increased"}]}
{"compound": "Ipilimumab: humanized immunoglobulin (Ig)G1 monoclonal antibody that blocks cytotoxic T-lymphocyte-associated antigen 4 (CTLA-4)", "values": [{"measurement": "median PFS", "setting": "[3]", "value": 2.8, "unit": "months"}, {"measurement": "overall response rate", "setting": "[3]", "value": 10.9, "unit": "%"}]}
